Data published in patent US20230338337A1, “BIOMARKERS FOR CANCER THERAPY USING MDM2 ANTAGONISTS” (OTSUKA PHARMACEUTICAL CO., LTD., priority 2019, published 2023).
pIC50: −log10 of the molar value. Where two headings read alike, the source gives them in different places.

Legend:
SJSA-1 = experiment: Protocol B: CellTiter-Glo cell viability assay
[1] = target: MDM2-p53 interaction (in vitro translated MDM2) (Homo sapiens (Human), UniProt Q00987); experiment: MDM2-p53 interaction 96-well plate binding assay (ELISA); conditions: for MDM2 % inhibition at 0.0010: at 0.0010 μM
[2] = test system: SJSA-1 (p53 wild-type, MDM2 amplified osteosarcoma); experiment: Protocol A: SRB growth inhibition assay; conditions: read-out: SJSA-1 IC50 (μM) (Protocol A)
SN40R2 = experiment: Protocol B: CellTiter-Glo cell viability assay; conditions: read-out: SN40R2 (Protocol B) % inhibition at 10, Protocol B
[3] = read-out: SJSA1 IC50 (μM) (Protocol B), Protocol B

Chain of MDM2-p53 interaction (in vitro translated MDM2) (Q00987 whole entry): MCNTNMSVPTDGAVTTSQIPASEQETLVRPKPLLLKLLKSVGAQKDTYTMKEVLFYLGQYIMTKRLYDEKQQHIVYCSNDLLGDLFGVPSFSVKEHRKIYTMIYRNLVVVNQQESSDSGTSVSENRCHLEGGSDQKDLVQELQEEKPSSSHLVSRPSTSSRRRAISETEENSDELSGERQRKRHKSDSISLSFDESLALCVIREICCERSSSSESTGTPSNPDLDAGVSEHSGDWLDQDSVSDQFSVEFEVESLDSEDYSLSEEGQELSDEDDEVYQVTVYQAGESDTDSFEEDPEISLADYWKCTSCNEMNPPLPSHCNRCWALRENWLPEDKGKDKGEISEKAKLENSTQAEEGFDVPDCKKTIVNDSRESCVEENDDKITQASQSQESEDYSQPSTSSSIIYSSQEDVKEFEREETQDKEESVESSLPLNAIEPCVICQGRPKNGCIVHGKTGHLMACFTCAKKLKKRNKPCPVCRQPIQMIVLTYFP

Molecule	IC50 (SJSA-1; [3])	MDM2 % inhibition at 0.0010 [1]	IC50 [2]	pIC50 ([1]; read-out: MDM2 IC50)	MDM2 % inhibition at 0.0030 ([1]; at 0.0030 μM)	inhibition at 10 µM (SN40R2)	IC50 (SJSA-1; Homo sapiens, SJSA-1, read-out: SJSA1 IC50 (μM) (Protocol B), Protocol B)
1-({[(1R)-1-(4-chlorophenyl)-2-[(5-chloropyrimidin-2-yl)methyl]-7-fluoro-5-[1-hydroxy-1-(1-methyl-1H-imidazol-4-yl)propyl]-3-oxo-2,3-dihydro-1H-isoindol-1-yl]oxy}methyl)cyclopropane-1-carboxamide [Example 486]	0.051 µM	59%@0.0010	0.075 µM				
2-{[(1R)-1-(4-chlorophenyl)-1-[(1-cyanocyclopropyl)methoxy]-7-fluoro-5-[1-hydroxy-1-(1-methyl-1H-imidazol-4-yl)propyl]-3-oxo-2,3-dihydro-1H-isoindol-2-yl]methyl}pyrimidine-5-carbonitrile [Example 462]	0.047 µM	80%@0.0010	0.073 µM				
2-{[(1R)-1-(4-chlorophenyl)-7-fluoro-1-({1-[hydroxydideuteromethyl]cyclopropyl}dideuteromethoxy)-5-(2-hydroxypropan-2-yl)-3-oxo-2,3-dihydro-1H-isoindol-2-yl]methyl}pyrimidine-5-carbonitrile [Example 513]	0.38 µM		0.26 µM	8.51			
2-{[(1R)-1-(4-chlorophenyl)-7-fluoro-5-[1-(4-fluoro-1-methylpiperidin-4-yl)-1-hydroxypropyl]-1-methoxy-3-oxo-2,3-dihydro-1H-isoindol-2-yl]methyl}pyrimidine-5-carbonitrile [Example 575]	0.066 µM	38%@0.0010	0.028 µM				
2-{[(1R)-1-(4-chlorophenyl)-7-fluoro-5-[1-(4-fluoro-1-methylpiperidin-4-yl)-1-hydroxypropyl]-3-oxo-1-[(3S)-oxolan-3-yloxy]-2,3-dihydro-1H-isoindol-2-yl]methyl}pyrimidine-5-carbonitrile [Example 561]	0.065 µM	47%@0.0010	0.021 µM				
6-{[(1R)-1-(4-chlorophenyl)-7-fluoro-5-{1-hydroxy-1-[trans-4-hydroxycyclohexyl]propyl}-3-oxo-1-[cis-3-hydroxycyclobutoxy]-2,3-dihydro-1H-isoindol-2-yl]methyl}pyridine-3-carbonitrile [Example 518]	0.065 µM	79%@0.0010	0.058 µM				
CC(O)(c1cc(F)c2c(c1)C(=O)N(Cc1ncc(Cl)cn1)[C@@]2(OCC1(CO)CC1)c1ccc(Cl)cc1)[C@H]1CC[C@H](O)CC1 (stereo partly drawn) [Example 401, (3R)-3-(4-chlorophenyl)-2-[(5-chloropyrimidin-2-yl)methyl]-4-fluoro-6-{1-hydroxy-1-[trans-4-hydroxycyclohexyl]ethyl}-3-{[1-(hydroxymethyl)cyclopropyl]methoxy}-2,3-dihydro-1H-isoindol-1-one]	0.0098 µM					6%	
CCC(O)(c1cc(F)c2c(c1)C(=O)N(Cc1ccc(C#N)cn1)[C@@]2(OCC1(F)COC1)c1ccc(Cl)cc1)c1cn(C)cn1 (stereo partly drawn) [Example 435, 6-{[(1R)-1-(4-chlorophenyl)-7-fluoro-1-[(3-fluorooxetan-3-yl)methoxy]-5-[1-hydroxy-1-(1-methyl-1H-imidazol-4-yl)propyl]-3-oxo-2,3-dihydro-1H-isoindol-2-yl]methyl}pyridine-3-carbonitrile]						0%	0.015 µM
CCC(O)(c1cc(F)c2c(c1)C(=O)N(Cc1ccc(C#N)cn1)[C@@]2(O[C@H]1CCOC1)c1ccc(Cl)cc1)C1(F)CCOCC1 (stereo partly drawn) [Example 445, 6-{[(1R)-1-(4-chlorophenyl)-7-fluoro-5-[1-(4-fluorooxan-4-yl)-1-hydroxypropyl]-3-oxo-1-[(3S)-oxolan-3-yloxy]-2,3-dihydro-1H-isoindol-2-yl]methyl}pyridine-3-carbonitrile]						16%	
CCC(O)(CN1CCN(C)CC1)c1cc(F)c2c(c1)C(=O)N(Cc1ncc(Cl)cn1)[C@@]2(O[C@H]1CCOC1)c1ccc(Cl)cc1 (stereo partly drawn) [Example 522, (3R)-3-(4-chlorophenyl)-2-[(5-chloropyrimidin-2-yl)methyl]-4-fluoro-6-[2-hydroxy-1-(4-methylpiperazin-1-yl)butan-2-yl]-3-[(3S)-oxolan-3-yloxy]-2,3-dihydro-1H-isoindol-1-one]	0.048 µM					24%	

The next lines start with results.

IC50 (SJSA-1; [3])	MDM2 % inhibition at 0.0010 [1]	IC50 [2]	pIC50 ([1]; read-out: MDM2 IC50)	MDM2 % inhibition at 0.0030 ([1]; at 0.0030 μM)	Molecule	inhibition at 10 µM (SN40R2)	IC50 (SJSA-1; Homo sapiens, SJSA-1, read-out: SJSA1 IC50 (μM) (Protocol B), Protocol B)
0.073 µM	79%@0.0010	0.084 µM			2-{[(1R)-1-(4-chlorophenyl)-7-fluoro-5-{1-hydroxy-1-[trans-4-hydroxycyclohexyl]propyl}-1-(2-hydroxyethoxy)-3-oxo-2,3-dihydro-1H-isoindol-2-yl]methyl}pyrimidine-5-carbonitrile [Example 510]		
0.17 µM	82%@0.0010	0.14 µM			(3R)-3-(4-chlorophenyl)-2-[(5-chloropyridin-2-yl)methyl]-4-fluoro-6-[1-(4-fluoropiperidin-4-yl)-1-hydroxypropyl]-3-[(3S)-oxolan-3-yloxy]-2,3-dihydro-1H-isoindol-1-one [Example 548]		
0.082 µM		0.22 µM		53%@0.0030	(3R)-3-(4-chlorophenyl)-2-[(5-chloropyrimidin-2-yl)methyl]-4-fluoro-3-[(3-fluorooxetan-3-yl)methoxy]-6-[1-hydroxy-1-(1-methylpiperidin-4-yl)ethyl]-2,3-dihydro-1H-isoindol-1-one [Example 558]		
0.0085 µM	77%@0.0010	0.023 µM			(3R)-3-(4-chlorophenyl)-2-[(5-chloropyrimidin-2-yl)methyl]-4-fluoro-6-[1-(4-fluoro-1-methylpiperidin-4-yl)-1-hydroxypropyl]-3-[(3S)-oxolan-3-yloxy]-2,3-dihydro-1H-isoindol-1-one [Example 571]		
0.02 µM	79%@0.0010	0.028 µM			(3R)-3-(4-chlorophenyl)-2-[(5-chloropyrimidin-2-yl)methyl]-4-fluoro-6-[1-[4-fluoro-1-(oxetan-3-yl)piperidin-4-yl]-1-hydroxypropyl]-3-methoxy-2,3-dihydro-1H-isoindol-1-one [Example 552]		
0.0091 µM	86%@0.0010	0.013 µM			(3R)-3-(4-chlorophenyl)-2-[(5-chloropyrimidin-2-yl)methyl]-4-fluoro-6-[1-hydroxy-1-(1-methyl-1H-imidazol-4-yl)propyl]-3-{[1-(hydroxymethyl)cyclopropyl]methoxy}-2,3-dihydro-1H-isoindol-1-one [Example 477]		
0.07 µM	74%@0.0010	0.21 µM			(3R)-3-(4-chlorophenyl)-2-[(5-chloropyrimidin-2-yl)methyl]-4-fluoro-6-[1-hydroxy-1-(1-methylpiperidin-4-yl)ethyl]-3-{[1-(hydroxymethyl)cyclopropyl]methoxy}-2,3-dihydro-1H-isoindol-1-one [Example 554]		
0.0064 µM	91%@0.0010	0.056 µM			(3R)-3-(4-chlorophenyl)-2-[(5-chloropyrimidin-2-yl)methyl]-4-fluoro-6-[(1S)-1-hydroxy-1-(1-methylpiperidin-4-yl)propyl]-3-{[1-(hydroxymethyl)cyclopropyl]methoxy}-2,3-dihydro-1H-isoindol-1-one [Example 556]		
